Data as given in patent US5491072A, “N-alkylacridan carboxyl derivatives useful for chemiluminescent detection” (Lumigen, Inc., priority 1993, dated 1996).

Experiments:
[1] = molecular target: T1, horseradish peroxidase (Armoracia rusticana, UniProt P00433); experiment: Comparison of compounds 1a-e at pH 8.9, time course and total intensity of chemiluminescence; assay type: biochemical; conditions: 0.01 mM acridan, 0.1M phosphate pH 8.9, 6.2 mM H2O2, 2.25 mM p-iodophenol, 1×10^-13 mol HRP; for I max (RLU), peak light intensity: 0.5% Tween 20, 1 mM EDTA
T1 sequence (P00433 31-338 limits assumed): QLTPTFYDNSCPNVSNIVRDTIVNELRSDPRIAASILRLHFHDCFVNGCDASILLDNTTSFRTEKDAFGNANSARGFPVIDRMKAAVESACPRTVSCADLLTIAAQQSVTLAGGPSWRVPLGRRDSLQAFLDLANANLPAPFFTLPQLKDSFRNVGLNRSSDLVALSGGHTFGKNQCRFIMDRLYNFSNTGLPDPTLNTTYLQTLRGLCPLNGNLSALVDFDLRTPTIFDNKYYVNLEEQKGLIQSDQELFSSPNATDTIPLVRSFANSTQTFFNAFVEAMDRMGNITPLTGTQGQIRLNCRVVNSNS
Experimental: (§1) The experiments in the following examples were performed using a Turner Designs TD-20e luminometer fitted with neutral density filter for light attenuation. Data collection, analysis and display were software controlled. Constant temperature was maintained by means of an external circulating water bath connected to the luminometer.
A 200 μL volume of a formulation containing 0.01 mM acridan compound 1a-e in 0.1M phosphate buffer, pH 8.9, […] (6.2 mM) H2 O2, 2.25 mM p-iodophenol, 0.5% (w/w) Tween 20 and 1 mM EDTA was reacted with 1×10^-13 mol of horseradish peroxidase. […] Compared below are the peak light intensity (Imax) in relative light units (RLU), the time to maximum light intensity (tmax) and total light output.

[2] = Improvement of detection by surfactants, background luminescence of 1b solution without peroxidase; conditions: Tween 20 0.5%-1%; no added peroxidase
From the text: The improvement occurs through minimizing the background chemiluminescence in the absence of added peroxidase, possibly due to a slowing of the autoxidative decomposition of the ester. In one experiment, Tween 20 (0.5%-1%) decreased the background luminescence from a solution of 1b by a factor of 65 compared to a similar solution lacking the surfactant.

[3] = molecular target: T2, HRP (Armoracia rusticana, UniProt P00433); experiment: Improvement of detection by phenol enhancers; assay type: biochemical, horseradish; conditions: 2.25 mM enhancer, 0.1 mM 1b, 0.8 mM H2O2, 0.5% Tween 20, 0.1M tris pH 8.5, 25° C., 1×10^-15 mol HRP, 30 min
T2 sequence (P00433 31-338 limits assumed): T1 sequence (P00433 31-338 limits assumed)
Experimental: as §1
To 220 μL of a formulation containing 0.1 mM 1b, 2.25 mM enhancer, 0.8 mM H2 O2, 0.5% (w/w) Tween 20 and 1 mM EDTA in 0.1M tris buffer, pH 8.5 at 25° C. an aliquot containing 1×10^-15 mol of HRP was injected and the chemiluminescence at 30 min was measured.

[4] = molecular target: T2, HRP; experiment: Optimization of enhancer and peroxide concentration, HRP-catalyzed oxidation of 1b; assay type: biochemical, horseradish; conditions: at the best level, 7×10^-16 mol HRP, 15 min, 0.1M tris pH 8.0, substrate 1b
Experimental: as §1
Enhancement of light emission from the HRP-catalyzed oxidation of 1b was studied using p-iodophenol. A series of concentrations of p-iodophenol (0.23 mM-4.5 mM) was used in 0.1M tris buffer, pH 8.0. Signal to background ratios obtained after incubation with 7×10^-16 mol of HRP for 15 min were compared using different assay reagents 1b (0.1 mM-0.05 mM) and peroxide (0.2 mM-0.8 mM)]. The best compromise between sensitivity and concentration was obtained using 1.1 mMp-iodophenol with 0.8 mMperoxide and 0.05 mM 1b. At the best level, 2500-fold enhancement in chemiluminescence intensity (compared to an identical solution containing no enhancer) was obtained using p-iodophenol with 7×10^-16 mol of enzyme.

[5] = benzoyl peroxide, aqueous solution; cited from earlier work

Compound	I max (RLU), peak light intensity [1] [RLU]	I total (RLU), total light output [1]	t max (min), time to maximum light intensity [1] [min]	S/B [3]	other results
CN1c2ccccc2C(C(=O)Oc2ccccc2)c2ccccc21 [Compound 1a, Phenyl 10-methylacridan-9-carboxylate]	247	ca. 6 × 10^5 RLU	9.6	–	–
Tween 20	–	–	–	–	decrease of background luminescence from a solution of 1b (factor, compared to a similar solution lacking the surfactant) [2]: 65
Oc1ccc(-c2ccccc2)cc1 [p-phenylphenol]	–	–	–	200	–
Oc1ccc(I)cc1 [p-iodophenol]	–	–	–	600	enhancement in chemiluminescence intensity (compared to an identical solution containing no enhancer) [4]: 2500 fold
CN1c2ccccc2C(C(=O)Oc2cccc(O)c2)c2ccccc21 [Compound 1c, 3'-Hydroxyphenyl 10-methylacridan-9-carboxylate]	24	3.6 × 10^4 RLU	7.8	–	–
Oc1ccc2ccccc2c1 [Compound 2-naphthol, 2-naphthol]	–	–	–	138	–
O=C(O)C=Cc1ccc(O)cc1 [p-hydroxycinnamic acid]	–	–	–	9	–
c1ccc2c(c1)Cc1ccccc1N2 [acridan]	–	–	–	–	chemiluminescence efficiency (OCL) [5]: 3×10^-7
CN1c2ccccc2C(C(=O)Oc2ccc3cc(O)ccc3c2)c2ccccc21 [Compound 1d, 6'-Hydroxynaphthyl 10-methylacridan-9-carboxylate]	992	7.4 × 10^5 RLU	1.8	–	–
CCCCCCCCCCCCOS(=O)(=O)[O-].[Na+] [SDS, sodium dodecyl sulfate]	–	–	–	–	decrease of background luminescence from a solution of 1b (factor, compared to a similar solution lacking the surfactant) [2]: similarly lowers background luminescence
Cc1ccc(S(=O)(=O)N(C(=O)C2c3ccccc3N(C)c3ccccc32)c2ccccc2)cc1 [Compound 1e]	8160	1.5 × 10^6 RLU	1.4	–	–
